According to patent US20070099877A1, “N-aryl-thienopyrimidin-4-amines and analogs as activators of caspases and inducers of apoptosis and the use thereof” (Cytovia, Inc., priority 2005, published 2007):
pEC50: −log10 of the molar value. Counter-ions that a name gives are not always drawn. Like-named read-outs stand apart in the source and are kept apart here.

Legend:
Format in all cases: cell-based
[1] = system: human breast cancer cell line T-47D; assay: Caspase cascade activation (DEVD-R110 fluorogenic substrate) in T-47D cells; details: Homo sapiens, T47D
Method in brief: (§1)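 Cells were exposed to compound at 0.016 to 10 μM final for 24 h or 48 h at 37 °C. They were then lysed with 14 μM N-(Ac-DEVD)-N′-ethoxycarbonyl-R110 in lysolecithin/DTT/PIPES buffer pH 7.2 for 3 h at room temperature (ex 485/em 530 nm). EC50 came from a sigmoidal fit of net RFU relative to untreated control.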

[2] = system: human colon carcinoma cell line HCT116; assay: Caspase cascade activation in HCT116 cells; details: Homo sapiens, HCT-116, 48 h, read-out: Caspase activation Potency EC50 HCT116 (48 h)
Method in brief: as §1

[3] = system: human breast cancer cell line T-47D; assay: Inhibition of cell proliferation (GI50, CellTiter-Glo) in T-47D cells; details: T47D cells
Procedure: (§2) Human breast cancer cell lines T-47D, MX-1 and MDAMB435, human colon cancer cell line HT29, and human lung cancer cell line H1299 were grown and harvested as in Example 75. An aliquot of […] of cells (4.4×10^4 cells/mL) was added to a well of a 96-well microtiter plate containing 5 μL of a 10% DMSO in RPMI-1640 media solution containing 10 nM to 100 μM of N-(2,5-dimethoxyphenyl)-2-methylthieno[3,2-d]pyrimidin-4-amine (1 nM to 10 μM final). An aliquot of 45 μL of cells was added to a well of a 96-well microtiter plate containing 5 μL of a 10% DMSO in RPMI-1640 media solution without compound as the control sample for maximal cell proliferation (Lmax). The samples were mixed by agitation and then incubated at 37° C. for 48 h in a 5% CO2-95% humidity incubator. After incubation, the samples were removed from the incubator and 25 μL of CellTiter-Glo™ reagent (Promega) was added. The samples were mixed by agitation and incubated at room temperature for 10-15 min. Plates were then read using a luminescent plate reader (Model SPECTRAfluor Plus, Tecan) to give Ltest values.
(§3) Baseline for GI50 (dose for 50% inhibition of cell proliferation) of initial cell numbers was determined by adding an aliquot of 45 μL of cells or 45 μL of media, respectively, to wells of a 96-well microtiter plate containing 5 μL of a 10% DMSO in RPMI-1640 media solution. The samples were mixed by agitation and then incubated at 37° C. for 0.5 h in a 5% CO2-95% humidity incubator. After incubation, the samples were removed from the incubator and 25 μL of CellTiter-Glo™ reagent (Promega) was added. The samples were mixed by agitation and incubated at 37° C. for 10-15 min at room temperature in a 5% CO2-95% humidity incubator. Fluorescence was read as above, (LStart) defining luminescence for initial cell number used as baseline in GI50 determinations.
(§4) GI50 (dose for 50% inhibition of cell proliferation) is the concentration where [(LTest−Lstart)/(LMax−Lstart)]=0.5.

[4] = system: human colon cancer cell line HT29; assay: Inhibition of cell proliferation (GI50) in HT29 cells; details: HT-29, Table III, 48 h
Procedure: as §2, §3, §4

[5] = system: human colon carcinoma cell line HCT116; assay: Inhibition of cell proliferation (GI50) in HCT116 cells; details: HCT-116, Table IV, read-out: GI50 in Multi-Cancer Cells HCT116
Procedure: as §2, §3, §4
(§5) Several compounds were tested in multi cancer cell lines, including human breast cancer cell lines T-47D, MX-1, SKBR3 and MDAMB435, human hepatocellular carcinoma cell line SNU398, human colon carcinoma cell line HCT116, human sarcoma cell line MES-SA and multi-drug resistant (MDR) human sarcoma cell line MES-SA/ADR, murine leukemia cell line P388 and multi-drug resistant (MDR) murine leukemia cell line P388ADR, and the data are summarized in Table IV.

[6] = system: murine leukemia cell line P388; assay: Inhibition of cell proliferation (GI50) in P388 cells; details: Mus musculus, Table IV, read-out: GI50 in Multi-Cancer Cells P388
Procedure: as §2, §3, §4, §5

[7] = system: human B cell lymphoblastoid cell line Ramos; assay: Caspase cascade activation in Ramos cells; details: 48 h, read-out: Caspase Activation Potency EC50 Ramos
[8] = system: human Burkitt's lymphoma cell line Namalwa; assay: Caspase cascade activation in Namalwa cells; details: Burkitts lymphoma cell, 48 h, read-out: Caspase Activation Potency EC50 Namalwa
[9] = system: breast cancer cell line SKBR3; assay: Caspase cascade activation in SKBR3 cells; details: Homo sapiens, SK-BR-3, 48 h, read-out: Caspase Activation Potency EC50 SKBR3
[10] = 24 h, T47D cells, 24 h, read-out: Caspase activation Potency EC50 T47D (24 h)
[11] = 48 h, T-47D cells, 48 h, read-out: Caspase activation Potency EC50 T-47D (48 h)
[12] = Table IV, read-out: GI50 in Multi-Cancer Cells T47D

Row | pEC50 [1, 10] | pEC50 [1, 11] | pEC50 [2] | GI50 ([3]; Table III, 48 h, read-out: GI50 in Cancer Cells T47D) | GI50 [3, 12] | GI50 [4] | GI50 [5] | GI50 [6] | pEC50 [7] | pEC50 [8] | pEC50 [9] | Structure (SMILES)
1 | 7.21 | 6.98 | 5.30 | 65 nM | 340 nM | 3630 nM | 4980 nM | 2060 nM | – | – | – | COc1ccc(OC)c(Nc2ncnc3ccsc23)c1 [Example 2, N-(2,5-Dimethoxyphenyl)thieno[3,2-d]pyrimidin-4-amine]
2 | 7.42 | 7.21 | 6.55 | – | 20 nM | – | 1250 nM | 540 nM | 6.24 | 6.45 | 7.11 | COc1cc(Nc2ncnc3ccsc23)cc(OC)c1 [Example 12, N-(3,5-Dimethoxyphenyl)thieno[3,2-d]pyrimidin-4-amine hydrochloride]
